# Reference: patent US8962600B2, “Neuroprotective compounds and their use” (The Medical College of Wisconsin, Inc., priority 2009, dated 2015)
# Experiments:
# [1] = system: inducible nitric oxide synthase (iNOS/NOS2); assay: iNOS expression in substantia nigra, Western blot and immunostaining; type: in vivo, C57BL/6 mice; conditions: MPTP-treated mice that also received diapocynin 300 mg/kg gavage
# Description: For checking inflammatory and oxidative stress markers, mice were gavaged diapocynin (300 mg/kg dose) 1 day before MPTP treatment (pre-treatment) and continued for another 4 days of co-treatment with MPTP. In the sub-acute MPTP regimen, MPTP (25 mg/kg) was injected intraperitoneally once per day from day 2 to day 7. Control mice received saline at the same dosage.
# Four days after MPTP treatment, mice were perfused with 4% paraformaldehyde (PFA) and post-fixed with PFA and 30% sucrose, respectively. Next, fixed brains were cut into 30 μm sections and kept in 30% sucrose-ethylene glycol solutions at −20° C. On the day of staining, sections were rinsed with phosphate-buffered saline (PBS) and incubated with different primary antibodies, including anti-IBA-1 (DAKO, Carpinteria, Calif.), anti-GFAP (Millipore, Billerica, Mass.), anti-iNOS (Santa Cruz Biotechnology, Santa Cruz, Calif.), anti-3NT (Millipore), anti-4HNE (R&D Systems, Minneapolis, Minn.) and anti-gp91phox (Santa Cruz Biotechnology) for overnight at 4° C. Appropriate secondary antibodies (Alexa Fluor 488, 594, or 555 from Invitrogen, Carlsbad, Calif.) were used followed by incubation with 10 μg/ml Hoechst 33342 for 5 min at room temperature to stain the nucleus. Sections were viewed under a Nikon inverted fluorescence microscope (model TE-2000U; Nikon, Tokyo, Japan). Images were captured with a SPOT digital camera (Diagnostic Instruments, Inc., Sterling Heights, Mich.).
# Mice were sacrificed 4 days or 7 days after MPTP treatment and substantia nigra tissue was dissected out. Brain lysates containing equal amounts of protein were loaded in each lane and separated on a 10 to 12% SDS polyacrylamide gel, as described previously (48). After the separation, proteins were transferred to a nitrocellulose membrane and nonspecific binding sites were blocked by treating with Li-Cor Odyssey blocking buffer (Li-Cor Biosciences, Lincoln, Nebr.). The membranes were then incubated with different primary antibodies including anti-TH (Millipore), anti-iNOS (Calbiochem), anti-3NT (Millipore) and anti-4HNE (R&D Systems). […]
# [2] = system: IL-12; assay: LPS-induced IL-12 release in primary microglia, LUMINEX immunoassay; type: cell-based, mouse; conditions: diapocynin 10 μM, LPS 24 hr
# Description: Primary microglia were obtained from 1-2 day old C57/b16 mouse pups. Upon collection, whole brains were kept in ice-cold DMEM-F12 medium containing 10% FBS, 1× sodium pyruvate, 1× NEAAs, 100 units pen/strep, and Q. After collection, the brains were placed in 0.25% trypsin-EDTA and incubated at 37° C., with gentle shaking every 5-10 min. After 30 min, the trypsin was removed, and the brains are washed in warmed medium twice. After washing, medium was added to the brains, and the brains were homogenized using gentle pipetting, starting with a 25 ml pipette and moving to smaller pipette tips as the brains were broken up. When the brains were sufficiently homogenized to a single-cell suspension, they were filtered with a 70 μm nylon filter, which allowed microglia and astrocytes to be collected. The resultant cell suspension was plated in T-75 flasks and allowed to grow for 12-14 days at 37° C., 5% CO2. […]
# Cytokine levels of BV2 and microglial cells treated with diapocynin were determined by LUMINEX® multiplex immunoassay. […]
# Cytokine standards and controls were adjusted to 40 μl volume and the LUMINEX® Samples were run on a LUMINEX® 200 Total System and analyzed with Multiplex Analysis—LUMINEX® Software (Invitrogen, Carlsbad, Calif.).
# [3] = system: MPTP-intoxicated mice; assay: Open Field locomotor activity in MPTP-injected mice; type: in vivo, C57BL/6 mice; conditions: MPTP- and diapocynin-treated mice; 300 mg/kg oral gavage; 5 days after last MPTP injection; 10 min session
# Description: Six- to 8-week-old C57BL/6 mice weighing 24 to 28 g were housed in standard conditions of constant temperature (22±1° C.), humidity (relative, 30%), and a 12-h light/dark cycle. Mice were allowed free access to food and water. Use of the animals and protocol procedures were approved and supervised by the Committee on Animal Care at Iowa State University (Ames, Iowa). For neurodegeneration studies, mice either received diapocynin (300 mg/kg dose) by oral gavage for 1 day (pre-treatment before MPTP administration), 5 days (co-treatment with MPTP), or 7 days (post-treatment after MPTP).
# Two types of behavioral tests were performed including an Open Field experiment for testing locomotor activities and a Rotarod experiment to test coordination of movement of mice after MPTP and diapocynin treatment (48, 56). An Open Field activity monitor (model RXYZCM-16; AccuScan, Columbus, Ohio) was used to measure the spontaneous activity of mice. The activity chamber was 40×40×30.5 cm, made of clear PLEXIGLAS® and covered with a PLEXIGLAS® lid with holes for ventilation. Infrared monitoring sensors were located every 2.54 cm along the perimeter (16 infrared beams along each side) and 2.5 cm above the floor. Two additional sets of 16 sensors were located 8.0 cm above the floor on opposite sides. Data were collected and analyzed by a VersaMax Analyzer (model CDA-8, AccuScan). […]
smiles,measurement,setting,value
COc1cc(C(C)=O)cc(-c2cc(C(C)=O)cc(OC)c2O)c1O [diapocynin],colocalized cells of iNOS and GFAP in substantia nigra,[1],very few colocalized cells
same,colocalized cells of iNOS and IBA-1 in substantia nigra,[1],very few colocalized cells
same,staining of iNOS in substantia nigra,[1],marked decrease
same,blocking LPS-induced release of IL-12,[2],very effective
same,horizontal activity (Open Field),[3],significantly improved
same,vertical activity (Open Field),[3],significantly improved
